Values quoted from earlier work, collected in patent publication US7629342B2, “Azabicyclic heterocycles as cannabinoid receptor modulators” (Bristol-Myers Squibb Company, priority 2005, dated 2009).

Tests used:
[1] = chronic administration for two weeks
[2] = highest dose; relative to 14.8% for placebo
[3] = 16 week trial period, Phase IIb

Structure (SMILES)	body weight [1]	patients stayed abstinent from cigarette smoke [2]	body weight in human subjects [3]
Cc1c(C(=O)NN2CCCCC2)nn(-c2ccc(Cl)cc2Cl)c1-c1ccc(I)cc1 [AM-251]	substantial body weight reduction		
Cc1c(C(=O)NN2CCCCC2)nn(-c2ccc(Cl)cc2Cl)c1-c1ccc(Cl)cc1 [SR-141716]		30.2%	dose-dependently reduced body weight
